The term pIC50 denotes the IC50 on a negative log10 scale, so that one unit is a factor of ten.

pIC50: −log10 of the molar value.

TNFα, sequence (P01375 77-233 limits assumed): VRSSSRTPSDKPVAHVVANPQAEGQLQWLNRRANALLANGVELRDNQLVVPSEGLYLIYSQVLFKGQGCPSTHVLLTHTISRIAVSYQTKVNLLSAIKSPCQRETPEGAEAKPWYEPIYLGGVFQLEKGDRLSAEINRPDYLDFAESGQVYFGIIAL

The first test has as its target TNFα (Homo sapiens, UniProt P01375). As to the kind of experiment: TNF induced HEK-Blue assay (NF-kB-driven secreted alkaline phosphatase reporter). The class given is cell-based. To be noted: TNF induced HEK-Blue assay IC50 value, TNFα 0.5 ng/mL, HEK-Blue-CD40L cells, 18 h. Summed up: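 HEK-Blue-CD40L cells (NF-kB-driven SEAP reporter), 20,000/well, added after 30 min pre-incubation of compound (0.004–25 μM final) with TNFα 0.5 ng/mL final at 37 °C; 18 h incubation. SEAP read with QUANTI-Blue at 620 nm; IC50 from 4-parameter logistic fit, normalized to unstimulated and stimulated DMSO controls.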
In turn, `CC(Nc1c(Cl)cnc2c(F)cc(-c3cnc(C(C)(C)O)nc3)cc12)c1ccccc1F` (racemic) [Example 247, 2-(5-(3-chloro-8-fluoro-4-((1-(2-fluorophenyl)ethyl)amino)quinolin-6-yl)pyrimidin-2-yl)propan-2-ol] had a pIC50 of more than 6.00.
On the same count and under the same terms, then `CC(Nc1c(Cl)cnc2ccc(-c3cnc(C(C)(C)O)nc3)c(Cl)c12)c1ccccc1F` (racemic) [Example 296, 2-(5-(3,5-dichloro-4-((1-(2-fluorophenyl)ethyl)amino)quinolin-6-yl)pyrimidin-2-yl)propan-2-ol], with more than 6.00.

Still in this test, the particulars now being: TNFα 0.5 ng/mL, HEK-Blue-CD40L cells, 18 h; read-out: TNF induced HEK-Blue assay IC50 value.
In the case of `Cc1nc2cc(F)c(-c3cnc(C(C)(C)O)nc3)nc2c(NC(c2ccccc2)C(F)F)c1Cl` (racemic) [Example 214, 2-(5-(7-chloro-8-((2,2-difluoro-1-phenylethyl)amino)-3-fluoro-6-methyl-1,5-naphthyridin-2-yl)pyrimidin-2-yl)propan-2-ol], the pIC50 is more than 6.00.
As for `C=Cc1cccc(C(Nc2c(Cl)cnc3cc(F)c(-c4cnc(C(C)(C)O)nc4)nc23)C(F)F)c1` (racemic) [Example 216, 2-(5-(7-chloro-8-((2,2-difluoro-1-(3-vinylphenyl)ethyl)amino)-3-fluoro-1,5-naphthyridin-2-yl)pyrimidin-2-yl) propan-2-ol], the pIC50 is more than 6.00.
Still for that read-out and setting: then `Cc1nc2ccc(-c3cnc(C(C)(C)O)nc3)cc2c(NC(C)c2ccccc2F)c1Cl` (racemic) [Example 218, 2-(5-(3-chloro-4-((1-(2-fluorophenyl)ethyl)amino)-2-methylquinolin-6-yl)pyrimidin-2-yl)propan-2-ol], with more than 6.00; and `CC(C)(O)c1ncc(-c2ccc3ncc(Cl)c(NC(c4ccccc4F)C(C)(C)F)c3c2)cn1` (racemic) [Example 229, 2-(5-(3-chloro-4-((2-fluoro-1-(2-fluorophenyl)-2-methylpropyl)amino)quinolin-6-yl)pyrimidin-2-yl)propan-2-ol], with 4.60 to 5.00; and `CC(C)(O)c1ncc(-c2ccc3ncc(Cl)c(NC(CCF)c4ccccc4F)c3c2)cn1` (racemic) [Example 230, 2-(5-(3-chloro-4-((3-fluoro-1-(2-fluorophenyl)propyl)amino)quinolin-6-yl)pyrimidin-2-yl) propan-2-ol], with more than 6.00.
On the same count and under the same terms, then `CC(Nc1c(Cl)cnc2ncc(-c3ccc(C(C)(C)O)cc3)cc12)c1ccccc1F` (racemic) [Example 231, 2-(4-(6-chloro-5-((1-(2-fluorophenyl)ethyl)amino)-1,8-naphthyridin-3-yl)phenyl)propan-2-ol], with 4.60 to 5.00; and `CC(C)(O)c1ccc(-c2ccc3ncc(Cl)c(NC(CCF)c4ccccc4F)c3c2)cc1` (racemic) [Example 232, 2-(4-(3-chloro-4-((3-fluoro-1-(2-fluorophenyl)propyl)amino)quinolin-6-yl)phenyl)propan-2-ol], with more than 6.00; and `CC(Nc1c(Cl)cnc2cc(F)c(-c3cnc(C(C)(C)O)nc3)nc12)c1cccc(N)c1` (racemic) [Example 239, 2-(5-(8-((1-(3-aminophenyl)ethyl)amino)-7-chloro-3-fluoro-1,5-naphthyridin-2-yl)pyrimidin-2-yl)propan-2-ol], with more than 6.00.
The same measure, in the same setting: then `CC(Nc1c(Cl)cnc2cc(F)c(-c3ccc(C4(O)CCC(C(=O)O)CC4)cc3)cc12)c1ccccc1F` (racemic) [Example 251, 4-(4-(3-chloro-7-fluoro-4-((1-(2-fluorophenyl)ethyl)amino)quinolin-6-yl)phenyl)-4-hydroxycyclohexane-1-carboxylic acid], with more than 6.00; and `CC(Nc1c(Cl)cnc2ccc(-c3cnc(C(C)(C)O)nc3)c(F)c12)c1ccccc1F` (racemic) [Example 253, 2-(5-(3-chloro-5-fluoro-4-((1-(2-fluorophenyl)ethyl)amino)quinolin-6-yl)pyrimidin-2-yl)propan-2-ol], with more than 6.00; and `CC(Nc1c(Cl)cnc2cc(F)c(-c3ccc(C4(CO)CC4)cc3)cc12)c1ccccc1F` (racemic) [Example 264, (1-(4-(3-chloro-7-fluoro-4-((1-(2-fluorophenyl)ethyl)amino)quinolin-6-yl)phenyl)cyclopropyl)methanol], with more than 6.00.
On to `CC(Nc1c(Cl)cnc2cc(F)c(-c3cnc(N4CCC(CC(=O)O)CC4)nc3)cc12)c1ccccc1F` (racemic) [Example 266, 2-(1-(5-(3-chloro-7-fluoro-4-((1-(2-fluorophenyl)ethyl)amino)quinolin-6-yl)pyrimidin-2-yl)piperidin-4-yl)acetic acid], for which the negative-log IC50 (pIC50) is more than 6.00.
`CC(Nc1c(Cl)cnc2cc(F)c(-c3cc(F)c(C(C)(C)O)c(F)c3)cc12)c1ccccc1F` (racemic) [Example 267, 2-(4-(3-chloro-7-fluoro-4-((1-(2-fluorophenyl)ethyl)amino)quinolin-6-yl)-2,6-difluorophenyl)propan-2-ol]: the pIC50 is more than 6.00.
On the same count and under the same terms, then `CC(Nc1ccnc2cc(F)c(-c3cnc(C4(O)CCOCC4)nc3)cc12)c1ccccc1F` (racemic) [Example 287, 4-(5-(7-fluoro-4-((1-(2-fluorophenyl)ethyl)amino)quinolin-6-yl)pyrimidin-2-yl)tetrahydro-2H-pyran-4-ol], with 4.60 to 5.00; and `CC(Nc1c(Cl)cnc2cc(F)c(-c3cnc(C(C)(C)O)cn3)cc12)c1ccccc1F` (racemic) [Example 294, 2-(5-(3-chloro-7-fluoro-4-((1-(2-fluorophenyl)ethyl)amino)quinolin-6-yl)pyrazin-2-yl)propan-2-ol], with more than 6.00.
On the same count and under the same terms, then `Cc1nc2c(F)cc(-c3cnc(C(C)(C)O)nc3)cc2c(NC(C)c2ccccc2F)c1Cl` (racemic) [Example 298, 2-(5-(3-chloro-8-fluoro-4-((1-(2-fluorophenyl)ethyl)amino)-2-methylquinolin-6-yl)pyrimidin-2-yl)propan-2-ol], with more than 6.00; and `CC(Nc1c(Cl)cnc2cc(F)c(-c3cnc(C(O)CO)nc3)cc12)c1ccccc1F` (racemic) [Example 300, 1-(5-(3-chloro-7-fluoro-4-((1-(2-fluorophenyl)ethyl)amino)quinolin-6-yl)pyrimidin-2-yl)ethane-1,2-diol], with more than 6.00; and `Cc1nc2c(F)cc(-c3cnc(C(C)(C)O)nc3)cc2c(NC(C)c2ccc(F)cc2)c1Cl` (racemic) [Example 301, 2-(5-(3-chloro-8-fluoro-4-((1-(4-fluorophenyl)ethyl)amino)-2-methylquinolin-6-yl)pyrimidin-2-yl)propan-2-ol], with 4.60 to 5.00.
The same measure, in the same setting: then `Cc1nc2ccc(-c3ccc(C(C)(C)O)cc3)cc2c(NC(C)c2ccccc2F)c1Cl` (racemic) [Example 308, 2-(4-(3-chloro-4-((1-(2-fluorophenyl)ethyl)amino)-2-methylquinolin-6-yl)phenyl) propan-2-ol], with more than 6.00; and `Cc1nc2ccc(-c3cnc(N4CCN(CC(=O)O)CC4)nc3)cc2c(NC(C)c2ccccc2F)c1Cl` (racemic) [Example 309, 2-(4-(5-(3-chloro-4-((1-(2-fluorophenyl)ethyl)amino)-2-methylquinolin-6-yl)pyrimidin-2-yl)piperazin-1-yl)acetic acid], with more than 6.00.
In the case of `Cc1nc2ccc(-c3cnc(N4CCS(=O)(=O)CC4)nc3)cc2c(NC(C)c2ccccc2F)c1Cl` (racemic) [Example 310, 4-(5-(3-chloro-4-((1-(2-fluorophenyl)ethyl)amino)-2-methylquinolin-6-yl)pyrimidin-2-yl)thiomorpholine 1,1-dioxide], the pIC50 was more than 6.00.
On the same count and under the same terms, then `Cc1nc2ccc(-c3cnc(N4CCOCC4)nc3)cc2c(NC(C)c2ccccc2F)c1Cl` (racemic) [Example 311, 3-chloro-N-(1-(2-fluorophenyl)ethyl)-2-methyl-6-(2-morpholinopyrimidin-5-yl)quinolin-4-amine], with more than 6.00; and `Cc1nc2ccc(-c3cnc(C(C)(C)O)nc3)cc2c(NC(C)c2cc(F)ccc2F)c1Cl` (racemic) [Example 317, 2-(5-(3-chloro-4-((1-(2,5-difluorophenyl)ethyl)amino)-2-methylquinolin-6-yl)pyrimidin-2-yl)propan-2-ol], with more than 6.00.
`CCCC(C)C(=O)c1c(Cl)c(C)nc2ccc(-c3cnc(C(C)(C)O)nc3)cc12` (racemic) [Example 356, ± 1-(3-Chloro-6-(2-(2-hydroxypropan-2-yl)pyrimidin-5-yl)-2-methylquinolin-4-yl)-2-methylpentan-1-one]: the pIC50 was 4.60 to 5.00.
For the compound `Cc1nc2ccc(-c3cnc(C(C)(C)O)nc3)cc2c(N[C@@H](c2cc(C(N)CO)ccc2F)C(F)F)c1Cl` (mixture of isomers) [Example 434, 2-(5-(4-(((1 S)-1-(5-(1-amino-2-hydroxyethyl)-2-fluorophenyl)-2,2-difluoroethyl)amino)-3-chloro-2-methylquinolin-6-yl)pyrimidin-2-yl)propan-2-ol], the pIC50 was more than 6.00.
Still for that read-out and setting: then `CC(Nc1c(Cl)cnc2ccc(-c3cnc(N4CCNC(=O)C4)nc3)cc12)c1nc(C(N)=O)ccc1F` (single isomer, unassigned) [Example 25, 6-(1-((3-chloro-6-(2-(3-oxopiperazin-1-yl)pyrimidin-5-yl)quinolin-4-yl)amino)ethyl)-5-fluoropicolinamide], with 5.00 to 6.00; and `CC(Nc1c(Cl)cnc2ccc(-c3cnc(N4CCNC(=O)C4)nc3)cc12)c1nc(C(N)=O)ccc1F` (single isomer, unassigned) [Example 26, 6-(1-((3-chloro-6-(2-(3-oxopiperazin-1-yl)pyrimidin-5-yl)quinolin-4-yl)amino)ethyl)-5-fluoropicolinamide], with more than 6.00; and `CC(C)(O)c1ncc(-c2ccc3ncc(Cl)c(NC(c4ccccc4F)C(F)F)c3c2)cn1` (single isomer, unassigned) [Example 55, 2-(5-(3-chloro-4-((2,2-difluoro-1-(2-fluorophenyl)ethyl)amino)quinolin-6-yl)pyrimidin-2-yl)propan-2-ol], with more than 6.00.

The values are drawn from patent publication US10865191B2, “Heterocyclic compounds useful as modulators of TNF alpha” (BRISTOL-MYERS SQUIBB COMPANY, priority 2015, dated 2020).
